Measured values from patent US20050272707A1, “Method for preventing or reducing secondary fractures after hip fracture” (priority 2002, published 2005).
“Also recorded” adds a separate entry of the source.

Columns and labels:
bone resorption [1] = settings: variety of assays of bone metabolism; cited from earlier work
[2] = test system: subsequent osteoporotic fractures after hip fracture; test: placebo-controlled study of intravenous zoledronic acid in preventing subsequent osteoporotic fractures after a hip fracture; type: in vivo, human patients; settings: patients after recent surgical repair of hip fracture; 5 mg i.v. once per year plus vitamin D and calcium vs vitamin D and calcium alone; 12 and 24 months
Description: “A Multinational, multicenter, double-blind, randomized, placebo-controlled, parallel-group study assessing the efficacy of intravenous zoledronic acid in preventing subsequent osteoporotic fractures after a hip fracture” is undertaken.
This will be a multicenter, randomized, double-blind, placebo-controlled, parallel group trial in men and women. Patients undergoing recent surgical repair of a low-trauma hip fracture will be eligible for enrollment. There will be at least 3 study contacts with patients after randomization within the first 24 months. Patients will have additional visits annually until 211 patients have reached the primary endpoint. The final visit for patients will be contingent on when this endpoint is achieved. Once the endpoint is achieved all patients will need to come in for a final visit. The final visit will be no less than 30 days from the patient's last dose of study medication or no more than 90 days after the day 211 patients have reached the primary endpoint. […]
The primary efficacy endpoint is time to first clinical fracture. Between treatment differences will be evaluated using a log-rank test to compare the time to clinical fracture between the two treatment groups. […]

[3] = stability of diluted infusion solution; type: physicochemical; settings: diluted with infusion media, 2-8° C.
Protocol: The cumulative time between dilution with infusion media, storage in a refrigerator and end of administration must not be longer than 24 hours. Ideally, diluted zoledronic acid solutions should be used immediately. However, if diluted zoledronic acid solutions cannot be used immediately, the solutions must be refrigerated at temperatures between 2-8° C. Before administration, the solution should be allowed to slowly warm to room temperature again.

bone resorption [4] = settings: cited from earlier work

In the case of `O=P(O)(O)C(O)(Cn1ccnc1)P(=O)(O)O` [zoledronic acid, 1-hydroxy-2-(imidazol-1-yl)ethane-1,1-diphosphonic acid], the “concentrations at which inhibition of bone resorption in vitro was demonstrated” value (bone resorption [1]) is listed as 0.3 to 30 nM, the “rate of subsequent (secondary) osteoporotic fractures” value [2] is listed as “significant reduction in secondary osteoporotic fractures; also recorded: significantly reduces the rate of all subsequent osteoporotic skeletal fractures” and the “stability of diluted infusion solutions” value [3] is listed as “at least 24 hours”. The “untoward effects on bone formation or mineralization” value (bone resorption [4]; at 0.3-30 nM in vitro and 0.3-30 μg/kg in vivo) was “without exerting any untoward effects on either bone formation or mineralization” and the “doses at which inhibition of bone resorption in vivo was demonstrated” value (bone resorption [4]; in vivo) was 0.3 to 30 µg/kg.
